According to patent publication US20260184807A1, “Methods for Treating Rheumatoid Arthritis Using a Syndecan-1 Inhibitor or Syntenin-1 Inhibitor” (The United States Government as represented by the …, priority 2022, published 2026):

Test system: RA FLS
Assay: RA FLS scratch assay
Format: cell-based, human
Details: Syntenin-1 1000 ng/ml 24 h; SDC1-Ab 1:100, mTORi 1 μM, HIF1αi 2 μM; FIGS. 16J-K
Description: RA STs were fluorescently stained to authenticate the colocalization of Mitofusin (MFN2) (FIGS. 16A-B) and DRP1 (FIGS. 16C-D) expression on Vimentin^+ FLS in the presence or absence of DAPI, (n=3, original magnification×60 or 500). RA FLS were treated with Syntenin-1 (1000 ng/ml) for 0-60 min to detect Mitofusin-2 and DRP1 expression (FIG. 16E, n=3) and actin served as equal loading, (n=3). RA FLS were treated with Syntenin-1 (1000 ng/ml) in the presence or absence of HIF1αi (2 μM) for 6 h to determine transcription of IL-1β (FIG. 16F, n=6), IL-6 (FIG. 16G, n=5), IL-8 (FIG. 16H, n=5) and CCL2 (I, n=6) by real-time RT-PCR. […] The number of cells in the scratch area was counted and compared to the untreated control, (K, n=4). RA FLS were treated with PBS or Syntenin-1 (1000 ng/ml) in the presence or absence of SDC-1 Ab (SDCab: 1:100), IL-5R Ab (IL5Ra; 2 μg/ml), or PDZli (PDZ1; 10 μM), and/or HIF1αi (2 μM) or mTORi ([…]) for 6 h before quantifying transcription levels of VEGF (FIG. 16L, n=5) and Notch1, FGF2, CXCL1, CXCL5 (FIG. 16K or 16M, n=8 or 7). Data are presented as mean±SEM; significant differences were determined by the Mann-Whitney test, 2way ANOVA, or one-way ANOVA. *p<0.05, **p<0.01, ***p<0.001, ****p<0.0001.
RA FLS and HUVEC scratch assay. […] The number of cells in the scratch area was counted and compared to the untreated control.

## CO[C@H]1C[C@@H]2CC[C@@H](C)[C@@](O)(O2)C(=O)C(=O)N2CCCC[C@H]2C(=O)O[C@H]([C@H](C)C[C@@H]2CC[C@@H](OCCO)[C@H](OC)C2)CC(=O)[C@H](C)/C=C(\C)[C@@H](O)[C@@H](OC)C(=O)[C@H](C)C[C@H](C)/C=C/C=C/C=C/1C [mTORi, Everolimus]
  Syntenin-1-driven RA FLS migration: intercepted
